Test results as given in PMC6831285, “TMTP1-modified Indocyanine Green-loaded Polymeric Micelles for Targeted Imaging of Cervical Cancer and Metastasis Sentinel Lymph Node in vivo” (Theranostics, 2019).

Tests used:
[1] = test system: popliteal (PO) LN; assay: NIR fluorescence LN imaging of normal mice; type: in vivo, BALB/c nude mice; details: intradermal injection into right paw, ICG 1.0 mg/kg
Procedure: For the SLN metastasis model, 1 × 10^7 HeLa-luc cells in 15 μL PBS were injected into the right hock of 5-week-old BALB/c-nude mice. The mice were monitored by BLI weekly to detect tumor metastases. After 1 month, tumor was about 5 mm with PO LN metastasis. HeLa-bearing mice were divided two groups randomly (n=10) and injected ITM and IM micelles via foot at equivalent ICG dose of 2 μg. At designed time points (5 min, 30 min, 1 h, 12 h and 24 h), the NIR fluorescence images in vivo were obtained. At 30 min and 1 h post injection, 2 mice from each group were randomly sacrificed and the excised main LNs were imaged. After 24 h post injection, LNs and main organs (heart, liver, spleen, lung, and kidney) were handled as described. In the same way, normal mice were divided into two groups randomly (n=5) and injected intradermally ITM or IM via foot. The NIR fluorescence images were acquired as mentioned above.

[2] = Plasma pharmacokinetic study; type: in vivo, BALB/c-nude mice; details: 0.5 mg/kg ICG
Procedure: Normal BALB/c-nude mice were administered intravenously with ITM or free ICG solution at an dose of 10 μg, respectively. At designed time points of 5 min, 10 min, 30 min, 1 h, 2 h, 3 h, 4 h, 8 h and 12 h post- injection, […] blood samples were collected into EDTA tubes and centrifuged at 6000 rpm for 10 min to obtain plasma. A fluorescence spectrophotometer with excitation and emission wavelengths of 745 nm and 840 nm was used to measure the ICG of the supernatant. The ICG content in the plasma was then assayed.

[3] = Photostability under visible light; type: physicochemical; details: after 1 day of exposure to visible light, 10 μg/mL
Procedure: The effect of the light exposure on the degradation of ITM or IM was determined with visible light at room temperature. The ICG and ICG-loaded micelles were diluted with distilled water to a final concentration of 10 μg/mL and were loaded into a 12-well plate. The fluorescence intensity was measured for up to 6 days. After incubation, the remaining fluorescence of each sample was measured using a spectrofluorometer with excitation and emission wavelengths of 745 nm and 840 nm, respectively. For the quantitative analysis, we normalized the fluorescence signal intensity.

In the case of CC1(C)C(/C=C/C=C/C=C/C=C2\N(CCCCS(=O)(=O)O)c3ccc4ccccc4c3C2(C)C)=[N+](CCCCS(=O)(=O)[O-])c2ccc3ccccc3c21 [Free ICG, indocyanine green], the “time within which the NIR fluorescence signal in SLN decreased quickly” value [1] is reported as at most 1 h, the Cmax ([2]; BALB/c-nude, mouse, iv) is reported as 134 ng/mL and the MRT ([2]; BALB/c-nude, mouse, iv) is reported as 268 min. For the same compound, the Tmax ([2]; BALB/c-nude, mouse, iv) was 5 min, the clearance ([2]; BALB/c-nude, mouse, iv) was 18 mL/min/kg and the half-life ([2]; BALB/c-nude, mouse, iv) was 4 min. The AUC(0-t) ([2]; BALB/c-nude, mouse, iv, read-out: AUC (0-12 h) in plasma (converted)) was 224 ng·h/mL, the V ([2]; i.v.) was 21.358 L/kg and the “fluorescence intensity remaining, of initial value” [3] was “less than 50%”.
